Marks after values point to notes of the source that are not given here.
Tests used:
[1] = test system: blood vessels in the chick chorioallantoic membrane (CAM); experiment: chick chorioallantoic membrane (CAM) assay, injection into the yolk sac; type: in vivo, chick embryo; settings: for Number Nodes + Ends (mean ± S.E.): control 271 ± 25, P < 0.0001 vs control
Excerpt: Compounds suitable for use in the methods of the present invention can readily be identified using in vitro and in vivo screening assays. Such assays may screen for the ability of a particular compound to inhibit angiogenesis or the vascularization of endothelial cells in vitro and in vivo. For instance, the chick embryo chorioallantoic membrane (CAM) assay, which is described in more detail below, can be used to screen a given compound for its ability to inhibit vascularization. In the chorioallantoic membrane assay as performed in this invention, fertilized chick embryos are injected with a compound on day 3 or 4. The embryos are then allowed to develop for […] post injection upon which the shell is cracked and the chorioallantoic membrane is photographed. Based on the number of blood vessel nodes and ends present in the CAM the complexity of vascularization can be assessed. This assay can be used to assess the anti-angeogenic properties of the compounds in this invention. It will be readily apparent to those skilled in the art that the compounds in this invention can be administered alone, in the form of a pharmaceutically acceptable salt and/or in the form of a pharmaceutical composition. This example illustrates the anti-angiogenic properties of Oleuropein in the chick chorioallantoic membrane assay (CAM). The endpoint of the CAM assay was a quantitative determination of the number of branch points and ends of blood vessels in the chorioallantoic membrane. Such a quantitation would illustrate the complexity of the blood vasculature in the developing chorioallantoic membrane. The decrease in the complexity of the blood vasculature of the chorioallantoic membrane as a result of the application of Oleuropein indicates its anti-angiogenic properties. The CAM in the developing chick embryo is an excellent in vivo system for studying angiogenesis, because there is ongoing new blood vessel growth. The CAM assay involves the monotering of the blood vasculature of the developing chorioallantoic membrane of live chick embryos. Various CAM assay approaches have been developed. These include the culturing of live chick embryos in Petri dishes under special sterile conditions. Another approach has been to cut a window in the shell of fertilized eggs and directly apply the compound to be studied in the window using a filter paper. We used a modified approach to the CAM assay, which includes a less invasive method for introducing the compound Oleuropein. Fertilized chicken eggs where candled on the third day of development. The blood vasculature and the yolk were identified. A small 1 mm hole was made in the shell. A small gauge needle carrying 0.4 ml of Oleuropein diluted in saline/water was injected directly into the yolk sac. The hole was taped and the eggs were returned to the incubator for further development. After 3 days the eggs were removed and cracked in a white dish and the chorioallantoic membrane was photographed. Control eggs were injected with saline/water. Fresh fertile eggs were incubated for three days in a standard egg incubator. Temperature and humidity were kept constant at 100° F. and 65% respectively. On Day 3, eggs were […] using a police flash light. Embryo and yolk were identified. The surface of the shell was cleaned with an alcohol swab. The egg shell was pierced with a lancet making a 1 millimeter hole. A needle was used to withdraw 0.5 ml of yolk. A 0.5 ml injection was administered directly into the yolk sack. […] Experimental eggs were injected with a 0.1% and 1.0% concentration of Oleuropein. Control eggs were injected with an equivalent amount of water. After injection the hole was covered with a small piece of scotch tape and the eggs were returned to the incubator for further development. On day 3 post injection the eggs were removed from the incubator and […]. They were cracked gently using a butter knife over a white dish. Embryo and CAM were carefully layed out for observation and photography. […]

[2] = test system: induced blood vasculature of the adult mouse ear; experiment: adult mouse ear model, blood vessel growth induced by sodium hydroxide burn; type: in vivo; settings: 0.025 grams in 0.25 ml PBS intraperitoneally once a day, 3 days before and 3 days after NaOH burn, FIG. 7
Excerpt: This example illustrates the anti-angiogenic properties of Oleuropein in the adult mouse ear model. The endpoint of the adult mouse ear model assay was a direct visualization of the number of branch points and ends of blood vessels. Such visualization would illustrate the complexity of the blood vasculature in the adult mouse ear. The decrease in the complexity of the induced blood vasculature of the adult mouse ear as a result of the application of Oleuropein would indicate its anti-angiogenic properties.
In the previous model (the CAM in the developing chick embryo), although an excellent in vivo system for studying angiogenesis, because there is ongoing new blood vessel growth in the growing embryo, we tested another model in assessing whether Oleuropein can inhibit induced blood vessel growth in an adult mammal. The model we chose to use was the adult mouse ear. The mouse ear is vascularized and is thin enough to be directly visualized by a light microscope. If a stimulus is applied to the adult mouse ear existing blood vessels are capable of sprouting new ones (angiogenesis). Using this model anti-angiogenic compounds can be tested for their effects. We applied a sodium hydroxide burn, which stimulated the existing blood vessels in the adult mouse ear to sprout new blood vessels. […]

[3] = Oleuropein treated eggs, FIG. 5

SMILES: C/C=C1/[C@H](O[C@@H]2O[C@H](CO)[C@@H](O)[C@H](O)[C@H]2O)OC=C(C(=O)OC)[C@H]1CC(=O)OCCc1ccc(O)c(O)c1 [Oleuropein]
- effect on CAM vasculature (photographs) ([1]; 0.93 μmol/egg, FIG. 2 vs control FIG. 3): potently inhibited CAM vasculature
- % Inhibition of blood vessel growth compared to control ([1]; 0.93 μmole/egg): 73%
- Number Nodes + Ends (mean ± S.E.) ([1]; 0.93 μmole/egg into yolk sac of three-day-old chick embryos): 72 ± 11^b
- effect on CAM vasculature (photographs) ([1]; 9.3 μmol/egg, FIG. 1 vs control FIG. 3): number of blood vessels is greatly diminished and branching is less complex than in controls
- % Inhibition of blood vessel growth compared to control ([1]; 9.3 μmole/egg): 84%
- Number Nodes + Ends (mean ± S.E.) ([1]; 9.3 μmole/egg into yolk sac of three-day-old chick embryos): 44 ± 5.3^a
- CAM diameter, smaller than control CAM [1, 3]: about 50%
- embryo size, smaller than untreated control embryos [1, 3]: about 60%
- embryo viability ([1]; higher dose of Oleuropein): did not effect embryo viability
- inhibition of induced blood vessel growth in the ear (photographs) [2]: potently inhibited existing blood vessels from sprouting

Source: patent US6632798B2, “Methods for inhibiting angiogenesis” (Antigen Biologicals Corporation, priority 2001, dated 2003)
